Measured values taken from the supplement of paper PMC10307832.

What was measured:
Assay in all cases: relative viability (nuclei count vs DMSO), 5 days (fraction); higher = more cells survive
BI-D1870 + Tozasertib = compound: CC(C)CCN1c2nc(Nc3cc(F)c(O)c(F)c3)ncc2N(C)C(=O)C1C [BI-D1870] + Cc1cc(Nc2cc(N3CCN(C)CC3)nc(Sc3ccc(NC(=O)C4CC4)cc3)n2)n[nH]1 [Tozasertib] (partner 0.1 µM)
Procedure, shortened: (§1)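 One day after seeding in 1536-well plates, lung cancer cell lines were dosed by pin tool. Dosing was either single-drug or a fixed anchor-drug dose plus five library-drug doses (not always all listed) in √10 steps. After 5 days, nuclei were stained in one fix-and-stain step and counted on 4× images, and relative viability is the nuclei count of treated wells over that of vehicle wells, given as the median of duplicate plates.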

Zebularine + Dasatinib = compound: O=c1ncccn1[C@@H]1O[C@H](CO)[C@@H](O)[C@H]1O [Zebularine] + Cc1nc(Nc2ncc(C(=O)Nc3c(C)cccc3Cl)s2)cc(N2CCN(CCO)CC2)n1 [Dasatinib] (partner 0.075 µM)
Procedure, shortened: as §1

Zebularine + OSI-027 = compound: O=c1ncccn1[C@@H]1O[C@H](CO)[C@@H](O)[C@H]1O [Zebularine] + COc1cccc2cc(-c3nc([C@H]4CC[C@H](C(=O)O)CC4)n4ncnc(N)c34)[nH]c12 [OSI-027] (partner 0.5 µM)
Procedure, shortened: as §1

Zebularine + Pemetrexed = compound: O=c1ncccn1[C@@H]1O[C@H](CO)[C@@H](O)[C@H]1O [Zebularine] + Nc1nc2[nH]cc(CCc3ccc(C(=O)N[C@@H](CCC(=O)O)C(=O)O)cc3)c2c(=O)[nH]1 [Pemetrexed] (partner 0.2 µM)
Procedure, shortened: as §1

UMC-11
relative viability (BI-D1870 + Tozasertib; first compound 0.04 µM): 0.197 | relative viability (BI-D1870 + Tozasertib; first compound 0.1265 µM): 0.205 | relative viability (BI-D1870 + Tozasertib; first compound 0.4 µM): 0.195 | relative viability (BI-D1870 + Tozasertib; first compound 1.265 µM): 0.191 | relative viability (BI-D1870 + Tozasertib; first compound 4 µM): 0.188 | relative viability (Zebularine + Dasatinib; first compound 1 µM): 0.514 | relative viability (Zebularine + Dasatinib; first compound 3.162 µM): 0.471 | relative viability (Zebularine + Dasatinib; first compound 10 µM): 0.205 | relative viability (Zebularine + Dasatinib; first compound 31.62 µM): 0.436 | relative viability (Zebularine + Dasatinib; first compound 100 µM): 0.324 | relative viability (Zebularine + OSI-027; first compound 1 µM): 0.544 | relative viability (Zebularine + OSI-027; first compound 3.162 µM): 0.478 | relative viability (Zebularine + OSI-027; first compound 10 µM): 0.297 | relative viability (Zebularine + OSI-027; first compound 31.62 µM): 0.473 | relative viability (Zebularine + OSI-027; first compound 100 µM): 0.407 | relative viability (Zebularine + Pemetrexed; first compound 1 µM): 0.809 | relative viability (Zebularine + Pemetrexed; first compound 3.162 µM): 0.724 | relative viability (Zebularine + Pemetrexed; first compound 10 µM): 0.388 | relative viability (Zebularine + Pemetrexed; first compound 31.62 µM): 0.649 | relative viability (Zebularine + Pemetrexed; first compound 100 µM): 0.417
